Reference: patent US20260159520A1, “HETEROBIFUNCTIONAL COMPOUNDS AND METHODS OF TREATING DISEASE” (Halda Therapeutics OpCo, Inc., priority 2022, published 2026)

Experiments:
[1] = system: T-Rex 293 cell line SC3 cells having increased expression of androgen receptor protein; experiment: Cellular growth inhibition, T-Rex 293 SC3 cells with doxycycline (increased androgen receptor expression); assay type: cell-based; conditions: with 10 ng/mL doxycycline (increased androgen receptor), 72 hours, CellTiter-Glo 2.0
Experimental: (§1) The following types of cells were prepared for this experiment: (i) a T-Rex 293 cell line having increased expression of androgen receptor protein due to exposure to doxycycline and (ii) a T-Rex 293 cell line lacking increased expression of androgen receptor protein. Ability of the test compounds to inhibit proliferation of the foregoing cell types was evaluated according to the procedures set forth below.
(§2) The doxycycline-inducible androgen receptor protein expressing cell line was established using the following protocol: T-Rex 293 cells were purchased from Invitrogen (Cat #R71007) and transfected using Lipofectamine 2000 with the wild-type androgen receptor protein sequence cloned into the pcDNA4/TO vector. Transfected cells were selected using 400 μg/mL Zeocin (Invitrogen Cat #R25001). Following selection, single clones were raised and maintained in Dulbecco's Modified Eagle Medium (DMEM) supplemented with 10% w/w Tetracycline-free fetal bovine serum (FBS) and 250 μg/mL Zeocin. Clones were analyzed for expression of androgen receptor protein in the presence and absence of 10 ng/mL doxycycline (Sigma Cat #D9891), and a single doxycycline-inducible clone (hereinafter “SC3”) was selected for use in downstream assays.
(§3) The SC3 cells were seeded on poly-D-lysine coated, black clear-bottom 384-well plates at 2500/well, in 25 μL Phenol Red Free Dulbecco's Modified Eagle Medium (DMEM) supplemented with 10% w/w charcoal-dextran treated fetal bovine serum (FBS) and 1% w/w pen-strep, with or without 10 ng/mL doxycycline. Pen-Strep is a commercially available mixture of penicillin G and streptomycin, which is used in mammalian cell culture media to prevent bacterial contamination. Phenol Red Free Dulbecco's Modified Eagle Medium (DMEM) supplemented with 10% w/w charcoal-dextran treated fetal bovine serum (FBS) and 1% w/w pen-strep, with or without 10 ng/mL doxycycline is herein referred to as Treatment Medium. Following seeding of cells in the plates, the plates were spun at 300×g for 30 seconds, then equilibrated to room temperature for 30 minutes, and then deposited in a humidified tissue culture incubator maintained at 37° C. with 5% CO2.
(§4) At 24 hours after seeding of the cells, dilutions of test compound were prepared in DMSO and dissolved in Treatment Medium, to achieve a final DMSO concentration of 0.5% w/w, thereby providing the Test Compound Solution. A 25 μL aliquot of the Test Compound Solution was added to cells in the well plates. An equal volume of a solution containing DMSO and Treatment Medium was used as a negative control. Following treatment of cells with Test Compound Solution or said equal volume of a solution containing DMSO and Treatment Medium, the plates were spun at 300×g for 30 seconds, and then left in an incubator for 72 hours.
(§5) At the end of the treatment duration, cell viability was quantified with CellTiter-Glo 2.0 reagent (Promega Cat #G9243). For this purpose, plates were equilibrated to room temperature for 30 minutes, and then 25 μL of CellTiter-Glo 2.0 reagent was added to cells in the plate wells. Plates were then agitated on a shaker for two minutes at 500 rpm and subsequently incubated at room temperature for 10 minutes. Following incubation, the plates were spun at 3000×g for 30 seconds, then sealed with an optical adhesive cover, and luminescence readings were measured with an EnVision Plate Reader.
(§6) Data was normalized using zero luminescence for baseline. A four-parameter non-linear regression curve fit was applied to dose-response data in GraphPad Prism data analysis software to determine the half-maximal growth inhibitory concentration (GI50) for each test compound.

[2] = system: T-Rex 293 cell line SC3 cells lacking increased expression of androgen receptor protein; experiment: Cellular growth inhibition, T-Rex 293 SC3 cells without doxycycline; assay type: cell-based; conditions: not exposed to doxycycline, 72 hours, CellTiter-Glo 2.0
Experimental: as §1, §2, §3, §4, §5, §6

CDK9 = target: T1, CDK9 (Homo sapiens, UniProt P50750); experiment: KdELECT binding assay, CDK9; conditions: CDK9, Table 7
T1 construct: made in house; host or cells: E. coli BL21-derived host (T7 phage) or HEK-293 ('BEK-293' [sic])
T1 sequence (P50750 whole entry): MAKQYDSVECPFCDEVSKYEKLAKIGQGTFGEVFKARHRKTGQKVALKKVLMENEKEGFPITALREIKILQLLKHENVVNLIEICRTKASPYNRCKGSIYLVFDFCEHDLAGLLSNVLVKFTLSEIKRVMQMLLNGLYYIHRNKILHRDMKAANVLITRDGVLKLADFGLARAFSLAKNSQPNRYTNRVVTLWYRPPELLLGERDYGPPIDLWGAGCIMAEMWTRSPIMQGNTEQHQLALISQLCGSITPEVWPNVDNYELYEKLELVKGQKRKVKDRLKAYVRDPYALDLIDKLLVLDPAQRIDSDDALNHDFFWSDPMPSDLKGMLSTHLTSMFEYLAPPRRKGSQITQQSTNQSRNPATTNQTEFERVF
Experimental: Compounds were tested using a KdELECT. Kinase-tagged T7 phage strains were prepared in an E. coli host derived from the BL21 strain. E. coli were grown to log-phase and infected with T7 phage and incubated with shaking at 32° C. until lysis. The lysates were centrifuged and filtered to remove cell debris. The remaining kinases were produced in BEK-293 cells and subsequently tagged with DNA for qPCR detection. Streptavidin-coated magnetic beads were treated with biotinylated small molecule ligands for 30 minutes at room temperature to generate affinity resins for kinase assays. The liganded beads were blocked with excess biotin and washed with blocking buffer (SeaBlock (Pierce), 1% BSA, 0.05% Tween 20, 1 mM DTT) to remove unbound ligand and to reduce non-specific binding. Binding reactions were assembled by combining kinases, liganded affinity beads, and test compounds in 1× binding buffer (20% SeaBlock, 0.17×PBS, 0.05% Tween 20, 6 mM DTT). Test compounds were prepared as 111× stocks in 100% DMSO. Kd values were determined using an 11-point 3-fold compound dilution series with three DMSO control points. All compounds for Kd measurements are distributed by acoustic transfer (non-contact dispensing) in 100% DMSO. The compounds were then diluted directly into the assays such that the final concentration of DMSO was 0.9%. All reactions performed in polypropylene 384-well plate. Each was a final volume of 0.02 mL. The assay plates were incubated at room temperature with shaking for 1 hour and the affinity beads were washed with wash buffer (lx PBS, 0.05% Tween 20). The beads were then re-suspended in elution buffer (lx PBS, 0.05% Tween 20, 0.5 μM nonbiotinylated affinity ligand) and incubated at room temperature with shaking for 30 minutes. The kinase concentration in the eluates was measured by qPCR.

T47D cells = experiment: Cellular growth inhibition assay for T47D cells; assay type: cell-based; conditions: Homo sapiens, 72 hours, CellTiter-Glo 2.0
Experimental: (§7) T47D cells were purchased from American Type Cell Culture (ATCC Cat #HTB-133) and then seeded on poly-D-lysine coated, black clear-bottom 384-well plates at 3000/well in 25 μL Dulbecco's Modified Eagle Medium (DMEM) supplemented with 10% w/w Fetal bovine serum (FBS), 0.2 units/mL recombinant human insulin (Gibco Cat #12585014), and 1% w/w Pen-Strep. Pen-Strep is a commercially available mixture of penicillin G and streptomycin, which is used in mammalian cell culture media to prevent bacterial contamination. Dulbecco's Modified Eagle Medium (DMEM) supplemented with 10% w/w fetal bovine serum (FBS), 0.2 units/mL recombinant human insulin, and 1% w/w Pen-Strep is herein referred to as Treatment Medium. Following seeding of cells in the plates, the plates were spun at 300×g for 30 seconds, then equilibrated to room temperature for 30 minutes, and then deposited in a humidified tissue culture incubator maintained at 37° C. with 5% CO2.
as §4
as §5, with “Reader (Perkin Elmer).” for “Reader.”
as §6

VCaP cells = experiment: Cellular growth inhibition assay for VCaP cells; assay type: cell-based; conditions: Homo sapiens, 72 hours, CellTiter-Glo 2.0
Experimental: as §7, with “VCaP” for “T47D”, “#CRL2876)” for “#HTB-133)”, “5000/well” for “3000/well”, “(FBS)” for “(FBS), 0.2 units/mL recombinant human insulin (Gibco Cat #12585014),”, “(FBS)” for “(FBS), 0.2 units/mL recombinant human insulin,”
as §4
as §5, with “Reader. Data was normalized using zero luminescence for baseline.” for “Reader.”
A four-parameter non-linear regression curve fit was applied to dose-response data in GraphPad Prism data analysis software to determine the half-maximal growth inhibitory concentration (GI50) for each test compound.

Compound	Kd (CDK9) [nM]	GI50 (T47D cells) [nM]	GI50 (VCaP cells) [nM]	GI50 [1] [nM]	GI50 [2] [nM]
CC1(C)[C@H](NC(=O)c2cnc(N3CCC(OCCCN4CCN(CCCNS(=O)(=O)c5ccc(Nc6ncc(Br)c(Nc7cccc(F)c7C(N)=O)n6)cc5)CC4)CC3)nc2)C(C)(C)[C@H]1Oc1ccc(C#N)c(Cl)c1 [Compound I-17]	> 2500	1500 to 3000	–	> 3500	> 3500
CCc1cnn2c(NCc3ccc(OCCOCCN4CC5CN(c6ncc(C(=O)N[C@H]7C(C)(C)[C@H](Oc8ccc(C#N)c(Cl)c8)C7(C)C)cn6)CC5C4)nc3)cc(N3CCCC[C@H]3CCO)nc12 (stereo partly drawn) [Compound I-62]	50 to 500	–	100 to 1000	< 100	100 to 1000
CCc1cnn2c(NCc3ccc(OCCOC4CCN(C5CN(c6ncc(C(=O)N[C@H]7C(C)(C)[C@H](Oc8ccc(C#N)c(Cl)c8)C7(C)C)cn6)C5)CC4)nc3)cc(N3CCCC[C@H]3CCO)nc12 [Compound I-63]	< 50	–	< 100	< 100	< 100
CCc1cnn2c(NCc3ccc(OCCOC4CCN(c5ncc(C(=O)N[C@H]6C(C)(C)[C@H](Oc7ccc(C#N)c(Cl)c7)C6(C)C)cn5)CC4)nc3)cc(N3CCCC(F)(F)C3)nc12 [Compound I-84, N-[3-(3-chloro-4-cyano-phenoxy)-2,2,4,4-tetramethyl-cyclobutyl]-2-[4-[2-[[5-[[[5-(3,3-difluoro-1-piperidyl)-3-ethyl-pyrazolo[1,5-a]pyrimidin-7-yl]amino]methyl]-2-pyridyl]oxy]ethoxy]-1-piperidyl]pyrimidine-5-carboxamide]	–	1500 to 3000	> 3500	100 to 1000	> 3500
CC1(C)[C@H](NC(=O)c2cnc(N3CCC(OCCOCCOCCN4C/C=C/CCOc5cccc(c5)-c5ccnc(n5)Nc5cccc(c5)C4)CC3)nc2)C(C)(C)[C@H]1Oc1ccc(C#N)c(Cl)c1 [Compound I-89]	–	> 3000	> 3500	100 to 1000	> 3500

The next lines start with results.

Kd (CDK9) [nM]	GI50 (T47D cells) [nM]	GI50 (VCaP cells) [nM]	Compound	GI50 [1] [nM]	GI50 [2] [nM]
> 2500	500 to 1500	–	CC1(C)[C@H](NC(=O)c2cnc(N3CCC(OCCOCCOCCOCCOCCNS(=O)(=O)c4ccc(Nc5ncc(Br)c(Nc6cccc(F)c6C(N)=O)n5)cc4)CC3)nc2)C(C)(C)[C@H]1Oc1ccc(C#N)c(Cl)c1 [Compound I-15]	> 3500	> 3500
> 2500	< 500	–	CN(CCOCCOCCOCCOCCNS(=O)(=O)c1ccc(Nc2ncc(Br)c(Nc3cccc(F)c3C(N)=O)n2)cc1)c1ncc(C(=O)N[C@H]2C(C)(C)[C@H](Oc3ccc(C#N)c(Cl)c3)C2(C)C)cn1 [Compound I-20]	> 3500	> 3500
–	500 to 1500	100 to 1000	CCc1cnn2c(NCc3ccc(N(C)CCCN4CCC(C5CN(c6ncc(C(=O)N[C@H]7C(C)(C)[C@H](Oc8ccc(C#N)c(Cl)c8)C7(C)C)cn6)C5)CC4)nc3)cc(N3CCCC[C@H]3CCO)nc12 [Compound I-82]	100 to 1000	100 to 1000
–	< 500	100 to 1000	CCc1cnn2c(NCc3ccc(N(C)CCOC4CCN(C5CN(c6ncc(C(=O)N[C@H]7C(C)(C)[C@H](Oc8ccc(C#N)c(Cl)c8)C7(C)C)cn6)C5)CC4)nc3)cc(N3CCCC[C@H]3CCO)nc12 [Compound I-85]	100 to 1000	100 to 1000
–	500 to 1500	> 3500	CCc1cnn2c(NCc3ccc(OCCN4CCN(CC5CCN(c6ncc(C(=O)N[C@H]7C(C)(C)[C@H](Oc8ccc(C#N)c(Cl)c8)C7(C)C)cn6)CC5)CC4)nc3)cc(N3CCCC(F)(F)C3)nc12 [Compound I-91]	100 to 1000	> 3500
–	500 to 1500	100 to 1000	CCc1cnn2c(NCc3ccc(OCCCN4CCN(CC5CCN(c6ncc(C(=O)N[C@H]7C(C)(C)[C@H](Oc8ccc(C#N)c(Cl)c8)C7(C)C)cn6)CC5)CC4)nc3)cc(N3CCCC(F)(F)C3)nc12 [Compound I-92]	100 to 1000	1000 to 3500
–	500 to 1500	> 3500	CCc1cnn2c(NCc3ccc(OCCCCN4CCN(CC5CCN(c6ncc(C(=O)N[C@H]7C(C)(C)[C@H](Oc8ccc(C#N)c(Cl)c8)C7(C)C)cn6)CC5)CC4)nc3)cc(N3CCCC(F)(F)C3)nc12 [Compound I-93]	100 to 1000	> 3500
